US11319320B2, “PIM kinase inhibitor compositions, methods, and uses thereof” (Snap Bio, Inc., priority 2017, dated 2022)
Several values for one entry are separate records, joined by “and”; a condition that tells them apart may be missing. Equal entries are not always repeated. Where two headings read alike, the source gives them in different places.

Experiments:
PIM2 [1] = biological target: T1, PIM2 (Homo sapiens, UniProt Q9P1W9); assay: Biochemical kinase assay, radiolabeled ATP filter binding (Reaction Biology); conditions: 10 μM ATP, peptide substrate […]
PIM3 [2] = biological target: T2, PIM3 (Homo sapiens, UniProt Q86V86); assay: as above; conditions: 10 μM ATP, peptide substrate RSRHSSYPAGT
PIM1 [3] = biological target: T3, PIM1 (Homo sapiens, UniProt P11309); assay: as above; conditions: 10 μM ATP, peptide substrate […]
PIM1 [4] = biological target: T3, PIM1; assay: KINOMEscan competition binding assay (Kd)
PIM2 [5] = biological target: T1, PIM2; assay: KINOMEscan competition binding assay (Kd); conditions: run in duplicate
PIM3 [6] = biological target: T2, PIM3; assay: KINOMEscan competition binding assay (Kd); conditions: run in duplicate
DU145 = assay: Cell Titer-Glo 2.0 luminescent cell viability assay; assay type: cell-based; conditions: Homo sapiens, DU-145; 72 hour incubation, cell viability (ATP luminescence)
Protocol: (§1) To obtain growth inhibition data of endodermal cancer cells for PIM kinase inhibitors, Compound 122 was tested against SNU-16, HepG2, MIA PaCa-2, SW480, DU145, HEK-293, PANC-1, and THLE-3 cell lines using CELL TITER-GLO® 2.0 Luminescent Cell Viability Assay (Promega Corporation, Madison, Wis.) at Reaction Biology Corporation (Maven, Pa.). All cell lines were purchased from American Type Culture Collection (ATCC, Manassas, Va.) and maintained in the recommended culture media in the presence of 10% fetal bovind serum, […] of penicillin and 100 µg/mL of streptomycin at 37° C. in a humidified atmosphere of 5% CO2 and 95% air. To initiate the growth inhibition study, Compound 122 was diluted in DMSO solution with 10-dose and 3-fold dilutions in a source plate starting at 50 mM. […] The cells in the cell culture plates were incubated with the compounds at 37° C. for 72 hours in a humidified atmosphere of 5% CO2 and 95% air. After a 72 hour incubation period, 25 μl of Cell Titer Glo 2.0 reagent was added to each well. The contents were mixed on an orbital shaker for 2 minutes and incubated at room temperature for 15 minutes to stabilize the luminescent signal. Luminescence was recorded by Envision 2104 Multilabel Reader (PerkinElmer, Santa Clara, Calif.). The number of viable cells in culture was determined based on quantitation of the ATP present in each culture well. […] Table 5 lists the IC50 values for Compound 122 in the tested cell lines.

HEK-293 = assay: as above; assay type: cell-based; conditions: Homo sapiens, HEK293; 72 hour incubation, cell viability (ATP luminescence)
Protocol: as §1

HepG2 = assay: as above; assay type: cell-based; conditions: Homo sapiens, 72 hour incubation, cell viability (ATP luminescence)
Protocol: as §1

MIA PaCa-2 = assay: as above; assay type: cell-based; conditions: Homo sapiens, 72 hour incubation, cell viability (ATP luminescence)
Protocol: as §1

SNU-16 = assay: as above; assay type: cell-based; conditions: Homo sapiens, 72 hour incubation, cell viability (ATP luminescence)
Protocol: as §1

SW480 = assay: as above; assay type: cell-based; conditions: Homo sapiens, 72 hour incubation, cell viability (ATP luminescence)
Protocol: as §1

THLE-3 = assay: as above; assay type: cell-based; conditions: THLE3; 72 hour incubation, cell viability (ATP luminescence)
Protocol: as §1

PANC-1 = assay: as above; assay type: cell-based, human; conditions: 72 hour incubation, cell viability (ATP luminescence)
Protocol: To obtain growth inhibition data of endodermal cancer cells for PIM kinase inhibitors, Compound 122 was tested against SNU-16, HepG2, MIA PaCa-2, SW480, DU145, HEK-293, PANC-1, and THLE-3 cell lines using CELL TITER-GLO® 2.0 Luminescent Cell Viability Assay (Promega Corporation, Madison, Wis.) at Reaction Biology Corporation (Maven, Pa.). All cell lines were purchased from American Type Culture Collection (ATCC, Manassas, Va.) and maintained in the recommended culture media in the presence of 10% fetal bovind serum, […] of penicillin and 100 µg/mL of streptomycin at 37° C. in a humidified atmosphere of 5% CO2 and 95% air. To initiate the growth inhibition study, Compound 122 was diluted in DMSO solution with 10-dose and 3-fold dilutions in a source plate starting at 50 mM. […] The cells in the cell culture plates were incubated with the compounds at 37° C. for 72 hours in a humidified atmosphere of 5% CO2 and 95% air. After a 72 hour incubation period, 25 μl of Cell Titer Glo 2.0 reagent was added to each well. The contents were mixed on an orbital shaker for 2 minutes and incubated at room temperature for 15 minutes to stabilize the luminescent signal. Luminescence was recorded by Envision 2104 Multilabel Reader (PerkinElmer, Santa Clara, Calif.). The number of viable cells in culture was determined based on quantitation of the ATP present in each culture well. […]

[7] = competition binding, run in duplicate, read-out: Kd PIM1
[8] = competition binding, read-out: Kd PIM3

| IC50 (PIM2 [1]) | IC50 (PIM3 [2]) | Kd (PIM1 [4]; [7]) | Kd (PIM2 [5]) | Kd (PIM3 [6]; [8]) | Structure (SMILES) | other results |
| --- | --- | --- | --- | --- | --- | --- |
| 7650 nM | 10 nM | – | – | – | CN(C)C[C@@H]1CCn2cc(c3ccccc32)C2=C(C(=O)NC2=O)c2cn(c3ccccc23)CCO1 [Ruboxistaurin, ruboxistaurin, reference compound] | – |
| 138 nM | 0.2 nM | – | – | – | O=C1NC(=O)c2c1c1c3ccccc3[nH]c1c1c2c2ccccc2n1CCN1CCOCC1 [Compound 3, 12,13-dihydro-12-(2-(4-morpholine)ethyl)-5H-Indolo[2,3-a]pyrrolo[3,4-c]carbazole-5,7(6H)-dione] | IC50 (PIM1 [3]): 1.6 nM |
| – | – | > 3 µM | > 3000 nM | > 3000 nM | O=C1NC(=O)c2c1c1c3cccc(Br)c3[nH]c1c1[nH]c3c(Br)cccc3c21 [Compound 139] | – |
| – | – | > 10 µM | > 10000 nM | > 10000 nM | O=C1NC(=O)c2c1c1c3cc(Br)ccc3[nH]c1c1[nH]c3ccc(Br)cc3c21 [Compound 137] | – |
| – | – | 0.28 µM | 260 nM | 24 nM | O=C1NC(=O)c2c1c1c([nH]c3cccc(F)c31)c1[nH]c3cccc(F)c3c21 [Compound 128] | – |
| – | – | > 10 µM | > 10000 nM | > 10000 nM | O=C1NC(=O)c2c1c1c3ccc(Br)cc3[nH]c1c1[nH]c3cc(Br)ccc3c21 [Compound 138] | – |
| 5.4 nM | 0.03 nM | 0.011 µM | 9 nM | 3 nM | O=C1NC(=O)c2c1c1c3ccc(O)cc3[nH]c1c1[nH]c3cc(O)ccc3c21 [Compound 122] | IC50 (PIM1 [3]): 0.5 nM; IC50 (DU145): 2330 nM; IC50 (HEK-293): 2700 nM; IC50 (HepG2): 970 nM; IC50 (MIA PaCa-2): 4810 nM; IC50 (SNU-16): 700 nM; IC50 (SW480): 2890 nM; IC50 (THLE-3): 4620 nM; IC50 PANC-1 (PANC-1): no inhibition |
| – | – | > 3 µM | > 3000 nM | > 3000 nM | N#Cc1cccc2c1[nH]c1c3[nH]c4c(C#N)cccc4c3c3c(c21)C(=O)NC3=O [Compound 147] | – |
| – | – | – | – | – | COC(=O)[C@@]1(O)C[C@H]2O[C@]1(C)n1c3ccccc3c3c4c(c5c6ccccc6n2c5c31)C(=O)NC4 [Compound K252a, K252a, reference compound] | Kd (PIM3 [6]; Kd PIM3, competition binding): ~10 nM |
| – | – | > 10 µM | > 10000 nM | > 10000 nM | N#Cc1ccc2c(c1)[nH]c1c3[nH]c4cc(C#N)ccc4c3c3c(c21)C(=O)NC3=O [Compound 146] | – |
| – | – | – | 77 nM | 27 nM | O=C1NC(=O)c2c1c1c3cc(F)ccc3[nH]c1c1[nH]c3ccc(F)cc3c21 [Compound 129, 3,9-difluoro-arcyriaflavin A] | Kd (PIM1 [4]; text value printed in μM, read-out: Kd for PIM1): 2.5 µM |
| – | – | 0.7 µM | 150 nM | 48 nM | O=C1NC(=O)c2c1c1c3ccc(F)cc3[nH]c1c1[nH]c3cc(F)ccc3c21 [Compound 130] | – |
| 55 nM | 0.2 nM | 0.13 µM | 84 nM | 6.4 nM | O=C1NC(=O)c2c1c1c3cccc(O)c3[nH]c1c1[nH]c3c(O)cccc3c21 [Compound 123] | IC50 (PIM1 [3]): 3.9 nM |
| – | – | 6.3 µM | 2600 nM | 130 nM | O=C1NC(=O)c2c1c1c3cccc(F)c3[nH]c1c1[nH]c3c(F)cccc3c21 [Compound 131] | – |

| Structure (SMILES) | IC50 (PIM2 [1]) | IC50 (PIM3 [2]) | Kd (PIM1 [4]; [7]) | Kd (PIM2 [5]) | Kd (PIM3 [6]; [8]) | other results |
| --- | --- | --- | --- | --- | --- | --- |
| O=C1NC(=O)c2c1c1c3ccccc3[nH]c1c1[nH]c3ccccc3c21 [Arcyriaflavin A, 12,13-dihydro-5H-indolo[2,3-a]pyrrolo[3,4-c]carbazole-5,7(6H)-dione, reference compound] | 21 nM | 0.3 nM | 0.021 µM | 19 nM | 2 nM and 1.9 nM | IC50 (PIM1 [3]): 2.2 nM |
